Experimental data: PMC10150365 (Journal of Medicinal Chemistry, 2023)
In brackets after ≈: the same amount, converted by molar mass. Several values for one entry are separate records, joined by “and”; a condition that tells them apart may be missing. Identical values can stand only once. Like-named read-outs stand apart in the source and are kept apart here. Marks after values point to notes of the source that are not given here.

What was measured:
[1] = in vitro; assay type: in vitro ADME, mouse; conditions: male, CD1, mouse, microsomes, pH 7.4; n = 1, fraction unbound assumed 1; read-out: Microsome Clint, mouse (MLM)
[2] = system: SK-OV-3; test: cells; assay type: cell-based, human
[3] = physchem; conditions: pH 7.4
[4] = in vitro; assay type: in vitro ADME; conditions: both sexes, human, microsomes, pH 7.4; n = 1, fraction unbound assumed 1; read-out: Microsome Clint, human (HLM)
[5] = in vitro; assay type: in vitro ADME; conditions: male, Sprague Dawley, rat, microsomes, pH 7.4; n = 1, fraction unbound assumed 1; read-out: Microsome Clint, rat (RLM)
[6] = physchem; conditions: pH 7.4; remark: listed apart in the source
[7] = physchem
[8] = Plasma protein binding and blood-to-plasma ratio; conditions: for fub: BALB/c mouse blood, fub = fup/B:P; for Plasma, fup: BALB/c mouse, 90% CI
[9] = Mouse blood PK (BALB/c); conditions: for Free Cav^0–24h: AUC^inf/24*fub; for CLu: CLtb/fub; for Vdu: Vss/fub
[10] = system: P-gp; test: iv PK in CF1 wild-type and P-gp-knockout mice; assay type: in vivo, mouse; conditions: 5 mg/kg iv, 90% CI
[11] = iv PK in CF1 wild-type and P-gp-knockout mice; assay type: in vivo, mouse; conditions: mouse, whole blood, iv, 5 mg/kg, read-out: Vss
[12] = Free fraction in CellTiter-Blue assay medium (dialysis); assay type: in vitro ADME; conditions: dialysis from CellTiter-Blue assay medium; 90% CI
[13] = in vitro; assay type: in vitro ADME; conditions: mouse
[14] = Homo sapiens, SK-OV-3, 96 h; read-out: SK-OV-3 pGI50 ± SEM (n) (converted)
[15] = Homo sapiens, SK-OV-3; 96 h, CellTiter-Blue, geometric mean; read-out: SK-OV-3 GI50
[16] = female, BALB/c, mouse, in vivo, po, 5 mg/kg
[17] = female, BALB/c, mouse, in vivo, po, 5 mg/kg, AUCu^0–6h, BALB/c mice, AUC*fub
[18] = female, BALB/c, mouse, in vivo, po, 5 mg/kg, po AUC^0–6h, BALB/c mice, po 5 mg/kg, 90% CI
[19] = female, BALB/c, mouse, whole blood, po, 5 mg/kg

Question: For Cc1ccc(NC(=O)c2ccc3c(c2)OCCO3)cc1NC(=O)c1ccc2nc(CN3CCN(C)CC3)ccc2c1 [Compound 15, N-(5-(2,3-Dihydrobenzo[b][1,4]dioxine-6-carboxamido)-2-methylphenyl)-2-((4-methylpiperazin-1-yl)methyl)quinoline-6-carboxamide], which microsomal CLint [1] is on record?
Answer: 21 µL/min/mg

Question: And the GI50 [2, 14]?
Answer: 9.55 nM

Question: And the GI50 [2, 15]?
Answer: 9.5 nM

Question: What about the chromatographic logD [3] of the same compound?
Answer: 1.6

Question: What about the microsomal CLint [4] of the same compound?
Answer: 33 µL/min/mg

Question: What about the microsomal CLint [5] of the same compound?
Answer: 33 µL/min/mg

Question: What about the solubility kinetic at 2 h, 100 µM [6] of the same compound?
Answer: 80 µM (≈ 44.1 µg/mL)

Question: For O=c1[nH]c2ccccc2n1C1CCN(CCCC(c2ccc(F)cc2)c2ccc(F)cc2)CC1 [Pimozide], which “FaSSGF Concentration, replicates 1-3” value (pH 1.6, individual replicates) is on record?
Answer: 0.087 mg/mL and 0.092 mg/mL and 0.090 mg/mL

Question: And the “FaSSIF Concentration, replicates 1-3” value (pH 6.5, individual replicates)?
Answer: 0.004 mg/mL and 0.003 mg/mL

Question: What about the “FeSSIF Concentration, replicates 1-3” value (pH 6.5, individual replicates) of the same compound?
Answer: 0.018 mg/mL and 0.008 mg/mL and 0.007 mg/mL

Question: And the solubility thermodynamic ([7]; pH 1.6, Thermodynamic solubility FaSSGF (mean), pH 1.6, 37 °C, 1 mg/mL (top limit of assay))?
Answer: 90 µg/mL (≈ 195 µM)

Question: What about the solubility thermodynamic ([7]; pH 6.5, Thermodynamic solubility FaSSIF (mean), pH 6.5, 37 °C, 1 mg/mL) of the same compound?
Answer: 4 µg/mL (≈ 8.67 µM)

Question: For Cc1ccc(NC(=O)c2ccc3c(c2)OCCO3)cc1NC(=O)c1ccc2nc(OCCN3CCCCC3)ccc2c1 [Compound 17, N-(5-(2,3-Dihydrobenzo[b][1,4]dioxine-6-carboxamido)-2-methylphenyl)-2-(2-(piperidin-1-yl)ethoxy)quinoline-6-carboxamide], which fub [8] is on record?
Answer: 0.015

Question: What about the “Plasma, fup” value [8] of the same compound?
Answer: 0.022 (0.027-0.017)

Question: What about the GI50 ([2]; Homo sapiens, SK-OV-3, 96 h, read-out: SK-OV-3 GI50) of the same compound?
Answer: 1.1 nM

Question: And the GI50 ([2]; Homo sapiens, SK-OV-3, 96 h, read-out: SK-OV-3 pGI50 ± SEM (n) (converted))?
Answer: 1.07 nM

Question: And the “iv Cltb” value ([9]; BALB/c mice, iv 5 mg/kg (18: 1 mg/kg), 90% CI)?
Answer: 40 (48–32) mL/min/kg

Question: What about the “Free Cav^0–24h” value ([9]; BALB/c mice, po) of the same compound?
Answer: 0.83 nM

Question: What about the CLu ([9]; BALB/c mice) of the same compound?
Answer: 162 L/h/kg

Question: And the Vdu ([9]; BALB/c mice)?
Answer: 340 L/kg

Question: What about the Tmax at 24 h [9, 16] of the same compound?
Answer: 2.3 h

Question: What about the bioavailability at 24 h [9, 16] of the same compound?
Answer: 24%

Question: What about the AUC [9, 17] of the same compound?
Answer: 0.012 µM·h

Question: And the AUC [9, 18]?
Answer: 0.83 µM·h

Question: And the Vd ([9]; female, BALB/c, mouse, whole blood, iv)?
Answer: 5.1 L/kg

Question: And the Cmax [9, 19]?
Answer: 180 nM

Question: And the Tmax [9, 19]?
Answer: 2 h

Question: And the Cltb ([10]; CF1^PGP-KO mice)?
Answer: 38 (43-37) mL/min/kg

Question: What about the Cltb ([10]; CF1^WT mice) of the same compound?
Answer: 47 (62-35) mL/min/kg

Question: What about the Vd ([11]; CF1 mdr1a P-gp deficient (CF1-Abcb1amds), CF1^PGP-KO mice) of the same compound?
Answer: 3.6 L/kg

Question: What about the Vd ([11]; CF1 wild type, CF1^WT mice) of the same compound?
Answer: 4.7 L/kg

Question: Which fub [8] does the source give for CCN1CCN(Cc2ccc3cc(C(=O)Nc4cc(NC(=O)c5ccc6c(c5)OCCO6)ccc4Cl)ccc3n2)CC1 [Compound 21, N-(2-Chloro-5-(2,3-dihydrobenzo[b][1,4]dioxine-6-carboxamido)phenyl)-2-((4-ethylpiperazin-1-yl)methyl)quinoline-6-carboxamide] here?
Answer: 0.0053

Question: And the “Plasma, fup” value [8]?
Answer: 0.013 (0.015-0.011)

Question: And the “Assay medium, fua” value [12]?
Answer: 0.15 (0.15-0.14)

Question: And the GI50 [2, 14]?
Answer: 11 nM

Question: And the GI50 [2, 15]?
Answer: 11 nM

Question: What about the Fmax ([9]; BALB/c mice) of the same compound?
Answer: 69%

Question: What about the “Free Cav^0–24h” value ([9]; BALB/c mice, po) of the same compound?
Answer: 1.3 nM

Question: And the CLu ([9]; BALB/c mice)?
Answer: 318 L/h/kg

Question: And the Vdu ([9]; BALB/c mice)?
Answer: 1100 L/kg

Question: And the bioavailability ([9]; female, BALB/c, mouse, in vivo)?
Answer: 100%

Question: What about the Vd ([9]; female, BALB/c, mouse, in vivo, iv) of the same compound?
Answer: 5.7 L/kg

Question: What about the half-life at 24 h ([9]; female, BALB/c, mouse, in vivo, iv, 5 mg/kg) of the same compound?
Answer: 2.3 h

Question: What about the Cmax [9, 16] of the same compound?
Answer: 880 nM

Question: What about the Tmax at 24 h [9, 16] of the same compound?
Answer: 1.7 h

Question: What about the bioavailability [9, 16] of the same compound?
Answer: 96%

Question: What about the AUC [9, 17] of the same compound?
Answer: 0.02 µM·h

Question: And the AUC [9, 18]?
Answer: 3.9 µM·h

Question: What about the hepatocyte CLint at 1 h, 1 µM ([13]; hepatocytes, n = 1, read-out: Mouse Heps CLint) of the same compound?
Answer: 71 µL/min/1e6 cells

Question: And the “Pred. in vivo CLu from Heps” value ([13]; fraction unbound in assay assumed 0.4 or 0.2)?
Answer: 1400 ^i mL/min/kg

Question: And the chromatographic logD [3]?
Answer: 2.2

Question: What about the solubility kinetic at 2 h, 100 µM [6] of the same compound?
Answer: 50 µM (≈ 29.3 µg/mL)

Question: Which results are given for Cc1ccc(NC(=O)c2ccc3c(c2)OCCO3)cc1NC(=O)c1ccc2nc(CN(C)C)ccc2c1 [Compound 12, N-(5-(2,3-Dihydrobenzo[b][1,4]dioxine-6-carboxamido)-2-methylphenyl)-2-((dimethylamino)methyl)quinoline-6-carboxamide]?
Answer: GI50 [2, 14]: 11.7 nM; GI50 [2, 15]: 12 nM; chromatographic logD [3]: 1.4; solubility kinetic at 2 h, 100 µM [6]: 50 µM (≈ 24.8 µg/mL)

Question: Which results are given for Cc1ccc(NC(=O)c2ccc3c(c2)OCCO3)cc1NC(=O)c1ccc2nc(CN3CCCC3C)ccc2c1 (racemic) [Compound 13, Racemic-N-(5-(2,3-Dihydrobenzo[b][1,4]dioxine-6-carboxamido)-2-methylphenyl)-2-((2-methylpyrrolidin-1-yl)methyl)quinoline-6-carboxamide]?
Answer: GI50 [2, 14]: 7.08 nM; GI50 [2, 15]: 7.1 nM; chromatographic logD [3]: 2.3; solubility kinetic at 2 h, 100 µM [6]: 50 µM (≈ 26.8 µg/mL)
